Where “and” joins values, the source holds several entries; their conditions need not be identical. Identical values can stand only once. Counter-ions that a name gives are not always drawn. Like-named read-outs stand apart in the source and are kept apart here.
How the values were obtained:
[1] = target: T1, wild type human RORγt ligand binding domain (RORyt LBD) (Homo sapiens, UniProt P51449); assay: RORγt ThermoFluor assay (thermal shift, binding affinity KD)
T1 construct: His-tag (N); TurboTEV protease cleavage site (ENLYFQG) (N); made in house; host or cells: E. coli (pHIS1, modified pET vector)
T1 sequence (P51449 258-518): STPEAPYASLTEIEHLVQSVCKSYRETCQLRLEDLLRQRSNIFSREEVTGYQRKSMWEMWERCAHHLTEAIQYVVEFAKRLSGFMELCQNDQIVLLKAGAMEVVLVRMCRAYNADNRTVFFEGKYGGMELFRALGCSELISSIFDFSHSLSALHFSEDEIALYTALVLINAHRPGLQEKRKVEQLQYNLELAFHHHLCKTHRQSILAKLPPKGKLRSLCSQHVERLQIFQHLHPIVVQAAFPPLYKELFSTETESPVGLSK

[2] = target: T2, wild type human RORγt LBD (Homo sapiens, UniProt P51449); assay: RORγt (LBD) Reporter Assay (GAL4-luciferase, HEK293T cells); type: cell-based; details: for inhibition at 6 µM: HEK-293T, read-out: RORγt (LBD) Reporter Assay, % inhibition @ 6 µM, 6 µM compound concentration; for RORγt (LBD) Reporter Assay, % inhibition @ 6 µM: 6 µM compound concentration
T2 construct: expressed in transfected cells; host or cells: HEK293T
T2 sequence (P51449 258-518): T1 sequence (P51449 258-518)

[3] = HEK293T cells, value after the comma with ∼, > or < could not be included in the average

Structure (SMILES) | Kd [1] [nM] | IC50 [2, 3] | inhibition at 6 µM [2] [%] | inhibition at 6 µM ([2]; HEK293T cells) [%] | RORγt (LBD) Reporter Assay, % inhibition @ 6 µM ([2]; HEK293T cells) [%] | IC50 ([2]; HEK293T cells) [nM] | RORγt (LBD) Reporter Assay, % inhibition @ 6 µM [2] [%]
COc1nc2ccc(C(O)(c3cnnn3C)C3CCN(C(C)=O)CC3)cc2c(Cl)c1Cc1ccc(C(F)(F)F)cc1 (single isomer, unassigned) [Example 74b, 1-(4-((4-Chloro-2-methoxy-3-(4-(trifluoromethyl)benzyl)quinolin-6-yl)(hydroxy)(1-methyl-1H-1,2,3-triazol-5-yl)methyl)piperidin-1-yl)ethanone] | 5 | 15 nM | 102 |  |  |  | 
Cc1ccc(C(O)(c2ccc3nc(NC4CC4)c(Cc4ccc(C(F)(F)F)cc4)c(Cl)c3c2)c2cnnn2C)c(C)n1 (stereo not shown) [Example 143a, {4-Chloro-2-(cyclopropylamino)-3-[4-(trifluoromethyl)benzyl]quinolin-6-yl}(2,6-dimethylpyridin-3-yl)(1-methyl-1H-1,2,3-triazol-5-yl)methanol] | 7.2 |  |  | 101 |  |  | 
CCCCc1nc2ccc(C(O)(c3cccnc3)c3cccc(F)c3)cc2c(Cl)c1Cc1ccc(-n2cccn2)cc1 (stereo not shown) [Example 60, (3-(4-(1H-Pyrazol-1-yl)benzyl)-2-butyl-4-chloroquinolin-6-yl)(3-fluorophenyl)(pyridin-3-yl)methanol•TFA] | 3100 | 620 nM and ~2000 nM | 83 |  |  |  | 
COc1nc2ccc(C(O)(c3ccc(C)nc3C)c3cnnn3C)cc2c(Cl)c1Cc1ccc(S(C)(=O)=O)cc1 (single isomer, unassigned) [Example 117c, (4-Chloro-2-methoxy-3-(4-(methylsulfonyl)benzyl)quinolin-6-yl)(2,6-dimethylpyridin-3-yl)(1-methyl-1H-1,2,3-triazol-5-yl)methanol] | 5.5 |  |  |  | 101 | 52 | 
COc1nc2ccc(C(O)(c3ccc(C#N)cc3)c3cncn3C)cc2c(Cl)c1Cc1ccc(C(F)(F)F)nc1 (stereo not shown) [Example 38a, 4-((4-Chloro-2-methoxy-3-((6-(trifluoromethyl)pyridin-3-yl)methyl)quinolin-6-yl)(hydroxy)(1-methyl-1H-imidazol-5-yl)methyl)benzonitrile] | 55 | 1.9 nM | 100 |  |  |  | 
COc1nc2ccc(C(O)(c3cncn3C)c3cnnn3C)cc2c(Cl)c1Cc1ccc(C(F)(F)F)cc1 (single isomer, unassigned) [Example 89b, (4-Chloro-2-methoxy-3-(4-(trifluoromethyl)benzyl)quinolin-6-yl)(1-methyl-1H-1,2,3-triazol-5-yl)(1-methyl-1H-imidazol-5-yl)methanol] | 1.2 | < 2 nM | 97 |  |  |  | 
Cc1cc(C(O)(c2ccnc(C(F)(F)F)c2)c2cncn2C)cc2c(C#N)c(Cc3ccc(-n4cccn4)cc3)c(C#N)nc12 (single isomer, unassigned) [Example 83c, 3-(4-(1H-Pyrazol-1-yl)benzyl)-6-(hydroxy(1-methyl-1H-imidazol-5-yl)(2-(trifluoromethyl)pyridin-4-yl)methyl)-8-methylquinoline-2,4-dicarbonitrile] | 450 | 1500 nM |  |  |  |  | 100
COC1CN(c2nc3ccc(C(O)(c4ccc(C(F)(F)F)nc4)c4cncn4C)cc3c(Cl)c2Cc2ccc(-n3cccn3)cc2)C1 (single isomer, unassigned) [Example 133c, {4-Chloro-2-(3-methoxyazetidin-1-yl)-3-[4-(1H-pyrazol-1-yl)benzyl]quinolin-6-yl}(1-methyl-1H-imidazol-5-yl)[6-(trifluoromethyl)pyridin-3-yl]methanol] | 12000 |  |  |  | 82 | 1200 | 
COc1nc2ccc(C(O)(c3cnnn3C)C3CCN(C(C)=O)CC3)cc2c(Cl)c1Cc1ccc(C(F)(F)F)cc1 (single isomer, unassigned) [Example 74c, 1-(4-((4-Chloro-2-methoxy-3-(4-(trifluoromethyl)benzyl)quinolin-6-yl)(hydroxy)(1-methyl-1H-1,2,3-triazol-5-yl)methyl)piperidin-1-yl)ethanone] | 7.7 | 20 nM |  |  |  |  | 101
COCCN(C)c1nc2ccc(C(O)(c3ccc(Cl)cc3)c3cncn3C)cc2c(Cl)c1Cc1ccc(-n2cccn2)cc1 (stereo not shown) [Example 127, {4-Chloro-2-[(2-methoxyethyl)(methyl)amino]-3-[4-(1H-pyrazol-1-yl)benzyl]quinolin-6-yl}(4-chlorophenyl)(1-methyl-1H-imidazol-5-yl)methanol] | 350 |  |  | 101 |  | 240 | 
COc1nc2ccc(C(N)(c3ccc(C(F)(F)F)nc3)c3cncn3C)cc2c(Cl)c1Cc1cc2ccccc2s1 (single isomer, unassigned) [Example 71c, (3-(Benzo[b]thiophen-2-ylmethyl)-4-chloro-2-methoxyquinolin-6-yl)(1-methyl-1H-imidazol-5-yl)(6-(trifluoromethyl)pyridin-3-yl)methanamine] | 270 | 830 nM |  |  |  |  | 94
COc1nc2ccc(C(O)(c3ccc(F)cc3)c3cccnc3)cc2c(Cl)c1Cc1ccc(-n2cccn2)cc1 (single isomer, unassigned) [Example 158b, (3-(4-(1H-Pyrazol-1-yl)benzyl)-4-chloro-2-methoxyquinolin-6-yl)(4-fluorophenyl)(pyridin-3-yl)methanol] | 140 |  |  | 107 |  | 170 | 
Cn1cncc1C(O)(c1ccc(C(F)(F)F)nc1)c1ccc2nc(C(F)(F)F)c(Cc3ccccc3)c(O)c2c1 (stereo not shown) [Example 107, 3-Benzyl-6-(hydroxy(1-methyl-1H-imidazol-5-yl)(6-(trifluoromethyl)pyridin-3-yl)methyl)-2-(trifluoromethyl)quinolin-4-ol•TFA] | 3400 | 5600 nM | 57 |  |  |  | 
COc1nc2ccc(C(O)(c3cnnn3C)c3cnc(C)n3C)cc2c(Cl)c1Cc1ccc(C(F)(F)F)nc1 (stereo not shown) [Example 43a, (4-Chloro-2-methoxy-3-((6-(trifluoromethyl)pyridin-3-yl)methyl)quinolin-6-yl)(1,2-dimethyl-1H-imidazol-5-yl)(1-methyl-1H-1,2,3-triazol-5-yl)methanol] | 1 | 7.9 nM | 98 |  |  |  | 
COc1nc2ccc(C(O)(c3ccc(Cl)cc3)c3cncn3C)cc2c(C#N)c1Cc1ccc(C(F)(F)F)cc1 (single isomer, unassigned) [Example 55b, 6-((4-Chlorophenyl)(hydroxy)(1-methyl-1H-imidazol-5-yl)methyl)-2-methoxy-3-(4-(trifluoromethyl)benzyl)quinoline-4-carbonitrile] | 530 | 500 nM | 96 |  |  |  | 
COc1c(Cc2ccccc2)c(C(F)(F)F)nc2ccc(C(O)(c3ccc(C(F)(F)F)nc3)c3cncn3C)cc12 (stereo not shown) [Example 106a, (3-Benzyl-4-methoxy-2-(trifluoromethyl)quinolin-6-yl)(1-methyl-1H-imidazol-5-yl)(6-(trifluoromethyl)pyridin-3-yl)methanol•TFA] | 48 |  | 84 |  |  |  | 
COc1nc2ccc(C(O)(c3ccc(C)nc3C)c3cncn3C)cc2c(Cl)c1Cc1ccc(C(F)(F)F)cc1 (single isomer, unassigned) [Example 88c, (4-Chloro-2-methoxy-3-(4-(trifluoromethyl)benzyl)quinolin-6-yl)(2,6-dimethylpyridin-3-yl)(1-methyl-1H-imidazol-5-yl)methanol] | 0.08 | 10 nM |  |  |  |  | 98
Cn1cncc1C(O)(c1ccc2nc(Cl)c(Cc3ccc(-n4cccn4)cc3)c(Cl)c2c1)c1ncccn1 (stereo not shown) [Example 130, {2,4-Dichloro-3-[4-(1H-pyrazol-1-yl)benzyl]quinolin-6-yl}(1-methyl-1H-imidazol-5-yl)pyrimidin-2-ylmethanol.TFA] | 640 |  |  | 94 |  | 510 | 
COc1nc2ccc(C(O)(c3cncn3C)C3CCOCC3)cc2c(Cl)c1Cc1ccc(-n2cccn2)cc1 (single isomer, unassigned) [Example 1c, (3-(4-(1H-Pyrazol-1-yl)benzyl)-4-chloro-2-methoxyquinolin-6-yl)(1-methyl-1H-imidazol-5-yl)(tetrahydro-2H-pyran-4-yl)methanol] | 1.5 | 22 nM |  |  |  |  | 98
Cn1cncc1C(O)(c1ccc2nc(C(F)(F)F)c(Cc3ccccc3)c(C#N)c2c1)c1ccccn1 (single isomer, unassigned) [Example 99b, 3-Benzyl-6-(hydroxy(1-methyl-1H-imidazol-5-yl)(pyridin-2-yl)methyl)-2-(trifluoromethyl)quinoline-4-carbonitrile] | 810 | ~2000 nM | 86 |  |  |  | 
CCc1nc2ccc(C(O)(c3cnnn3C)c3cnc(C)n3C)cc2c(Cl)c1Cc1ccc(C(F)(F)F)cc1 (single isomer, unassigned) [Example 25c, (4-Chloro-2-ethyl-3-(4-(trifluoromethyl)benzyl)quinolin-6-yl)(1,2-dimethyl-1H-imidazol-5-yl)(1-methyl-1H-1,2,3-triazol-5-yl)methanol] | 0.02 | 2.1 nM |  |  |  |  | 99

— patent publication EP3057951B1, “METHYLENE LINKED QUINOLINYL MODULATORS OF ROR-GAMMA-T” (Janssen Pharmaceutica NV, priority 2013, dated 2015)
